Publication PMC11005723, “Development of Complementary Photo‐arginine/lysine to Promote Discovery of Arg/Lys hPTMs Interactomes” (Advanced Science, 2024)
Non-standard residues stand in square brackets, D forms with d. No end group written: not given here. *: point of attachment. Biotin = O=C1N[C@H]2[C@H](CS[C@H]2CCCCC(=O)*)N1; R(dz) = photo-arginine

System: HEK293T nuclear lysates
Assay: SILAC‐based pull‐down proteomics H4K5me1/H4K5 (probes 6/5)
Format: binding, human
Settings: for B6 log2 (H4K5me/H4K5): run B6; for C6 log (H4K5me/H4K5): run C6

probe 6: H4K5me peptide probe with photo‐arginine R(dz) and K(biotin) (SG[R(dz)]GK(Me)GGKGLGKGGK(Biotin))
proteins recruited (SILAC proteomics H4K5me1/H4K5) (10 µµ probe, 365 nm UV 30 min, streptavidin enrichment, n = 2): could recruit L3MBTL2 | B6 log2 (H4K5me/H4K5) (protein A0A0B4J1Z1 SRSF7): 0.2308 | C6 log (H4K5me/H4K5) (protein A0A0B4J1Z1 SRSF7): 0.1007 | B6 log2 (H4K5me/H4K5) (protein A0A0C4DG89 DDX46): 0.248 | C6 log (H4K5me/H4K5) (protein A0A0C4DG89 DDX46): 0.4939 | B6 log2 (H4K5me/H4K5) (protein A0A0C4DG98 THOC2): 0.2302 | C6 log (H4K5me/H4K5) (protein A0A0C4DG98 THOC2): -0.4085 | B6 log2 (H4K5me/H4K5) (protein A0A2R8Y5G6 DDX3X): 0.1671 | C6 log (H4K5me/H4K5) (protein A0A2R8Y5G6 DDX3X): 0.08362 | B6 log2 (H4K5me/H4K5) (protein A0A2R8Y855 SMARCE1): 0.1691 | C6 log (H4K5me/H4K5) (protein A0A2R8Y855 SMARCE1): 0.1589 | B6 log2 (H4K5me/H4K5) (protein A0A087WWS1 THOC1): 0.1897 | C6 log (H4K5me/H4K5) (protein A0A087WWS1 THOC1): 0.01015 | B6 log2 (H4K5me/H4K5) (protein A0A087X2G1 DDX1): 0.2376 | C6 log (H4K5me/H4K5) (protein A0A087X2G1 DDX1): 0.1483 | B6 log2 (H4K5me/H4K5) (protein B1AK87 CAPZB): 0.2362 | C6 log (H4K5me/H4K5) (protein B1AK87 CAPZB): 0.1912 | B6 log2 (H4K5me/H4K5) (protein C9JFR7 CYCS): 0.1664 | C6 log (H4K5me/H4K5) (protein C9JFR7 CYCS): 0.2306 | B6 log2 (H4K5me/H4K5) (protein E5RJR5 SKP1): 0.2613 | C6 log (H4K5me/H4K5) (protein E5RJR5 SKP1): 0.4362 | B6 log2 (H4K5me/H4K5) (protein E9PCY7 HNRNPH1): 0.1643 | C6 log (H4K5me/H4K5) (protein E9PCY7 HNRNPH1): -0.04567 | B6 log2 (H4K5me/H4K5) (protein E9PHA2 NCAPH): 0.2207 | C6 log (H4K5me/H4K5) (protein E9PHA2 NCAPH): -0.3454 | B6 log2 (H4K5me/H4K5) (protein F5GYN4 OTUB1): 0.1534 | C6 log (H4K5me/H4K5) (protein F5GYN4 OTUB1): -0.02948 | B6 log2 (H4K5me/H4K5) (protein F5H8F7 ASH2L): 0.1889 | C6 log (H4K5me/H4K5) (protein F5H8F7 ASH2L): 0.02508 | B6 log2 (H4K5me/H4K5) (protein F8VRQ1 HNRNPA1): 0.2132 | C6 log (H4K5me/H4K5) (protein F8VRQ1 HNRNPA1): 0.1279 | B6 log2 (H4K5me/H4K5) (protein G3V4C1 HNRNPC): 0.1754 | C6 log (H4K5me/H4K5) (protein G3V4C1 HNRNPC): 0.1012 | B6 log2 (H4K5me/H4K5) (protein G3V529 DDX24): 0.1507 | C6 log (H4K5me/H4K5) (protein G3V529 DDX24): -0.9684 | B6 log2 (H4K5me/H4K5) (protein J3KTA4 DDX5): 0.1484 | C6 log (H4K5me/H4K5) (protein J3KTA4 DDX5): 0.164 | B6 log2 (H4K5me/H4K5) (protein M0R3H0 RPS16): 0.2369 | C6 log (H4K5me/H4K5) (protein M0R3H0 RPS16): -0.3242 | B6 log2 (H4K5me/H4K5) (protein O00567 NOP56): 0.2329 | C6 log (H4K5me/H4K5) (protein O00567 NOP56): 0.2086 | B6 log2 (H4K5me/H4K5) (protein O14980 XPO1): 0.2117 | C6 log (H4K5me/H4K5) (protein O14980 XPO1): -0.03544 | B6 log2 (H4K5me/H4K5) (protein O15042 U2SURP): 0.1992 | C6 log (H4K5me/H4K5) (protein O15042 U2SURP): 0.3265 | B6 log2 (H4K5me/H4K5) (protein O43143 DHX15): 0.2048 | C6 log (H4K5me/H4K5) (protein O43143 DHX15): 0.2816 | B6 log2 (H4K5me/H4K5) (protein O43290 SART1): 0.229 | C6 log (H4K5me/H4K5) (protein O43290 SART1): 0.0852 | B6 log2 (H4K5me/H4K5) (protein O43395 PRPF3): 1.011 | C6 log (H4K5me/H4K5) (protein O43395 PRPF3): 1.011 | B6 log2 (H4K5me/H4K5) (protein O43491 EPB41L2): 0.1873 | C6 log (H4K5me/H4K5) (protein O43491 EPB41L2): 0.1809 | B6 log2 (H4K5me/H4K5) (protein O43719 HTATSF1): 0.2156 | C6 log (H4K5me/H4K5) (protein O43719 HTATSF1): 0.1171 | B6 log2 (H4K5me/H4K5) (protein O43929 ORC4): 0.2071 | C6 log (H4K5me/H4K5) (protein O43929 ORC4): 0.2724 | B6 log2 (H4K5me/H4K5) (protein O60216 RAD21): 0.1881 | C6 log (H4K5me/H4K5) (protein O60216 RAD21): 0.2602 | B6 log2 (H4K5me/H4K5) (protein O60934 NBN): 0.1747 | C6 log (H4K5me/H4K5) (protein O60934 NBN): 0.1942 | B6 log2 (H4K5me/H4K5) (protein O75525 KHDRBS3): 0.1909 | C6 log (H4K5me/H4K5) (protein O75525 KHDRBS3): 0.05512 | B6 log2 (H4K5me/H4K5) (protein O95202 LETM1): 0.2397 | C6 log (H4K5me/H4K5) (protein O95202 LETM1): 0.3564 | B6 log2 (H4K5me/H4K5) (protein O95218 ZRANB2): 0.1711 | C6 log (H4K5me/H4K5) (protein O95218 ZRANB2): 0.2764 | B6 log2 (H4K5me/H4K5) (protein O95456 PSMG1): 0.8105 | C6 log (H4K5me/H4K5) (protein O95456 PSMG1): 0.8105 | B6 log2 (H4K5me/H4K5) (protein O95983 MBD3): 0.1485 | C6 log (H4K5me/H4K5) (protein O95983 MBD3): 0.1715 | B6 log2 (H4K5me/H4K5) (protein P06748 NPM1): 0.1928 | C6 log (H4K5me/H4K5) (protein P06748 NPM1): 0.1848 | B6 log2 (H4K5me/H4K5) (protein P07900 HSP90AA1): 0.1623 | C6 log (H4K5me/H4K5) (protein P07900 HSP90AA1): 0.0357 | B6 log2 (H4K5me/H4K5) (protein P09661 SNRPA1): 0.1608 | C6 log (H4K5me/H4K5) (protein P09661 SNRPA1): 0.0265 | B6 log2 (H4K5me/H4K5) (protein P11142 HSPA8): 0.1602 | C6 log (H4K5me/H4K5) (protein P11142 HSPA8): 0.128 | B6 log2 (H4K5me/H4K5) (protein P11388 TOP2A): 0.1715 | C6 log (H4K5me/H4K5) (protein P11388 TOP2A): -0.2242 | B6 log2 (H4K5me/H4K5) (protein P12004 PCNA): 0.186 | C6 log (H4K5me/H4K5) (protein P12004 PCNA): 0.08942 | B6 log2 (H4K5me/H4K5) (protein P19338 NCL): 0.2437 | C6 log (H4K5me/H4K5) (protein P19338 NCL): 0.2101 | B6 log2 (H4K5me/H4K5) (protein P22061 PCMT1): 0.8673 | C6 log (H4K5me/H4K5) (protein P22061 PCMT1): 0.8673 | B6 log2 (H4K5me/H4K5) (protein P22087 FBL): 0.1734 | C6 log (H4K5me/H4K5) (protein P22087 FBL): 0.2534 | B6 log2 (H4K5me/H4K5) (protein P22102 GART): 0.1557 | C6 log (H4K5me/H4K5) (protein P22102 GART): -0.03854 | B6 log2 (H4K5me/H4K5) (protein P25398 RPS12): 0.2482 | C6 log (H4K5me/H4K5) (protein P25398 RPS12): 0.204 | B6 log2 (H4K5me/H4K5) (protein P29692 EEF1D): 0.1672 | C6 log (H4K5me/H4K5) (protein P29692 EEF1D): -0.1339 | B6 log2 (H4K5me/H4K5) (protein P31153 MAT2A): 0.1703 | C6 log (H4K5me/H4K5) (protein P31153 MAT2A): 0.05667 | B6 log2 (H4K5me/H4K5) (protein P42166 TMPO): 0.2154 | C6 log (H4K5me/H4K5) (protein P42166 TMPO): 0.1594 | B6 log2 (H4K5me/H4K5) (protein P46109 CRKL): 0.2247
